Results as given in ChEMBL document CHEMBL2029294, “Evaluation of endo- and exo-aryl-substitutions and central scaffold modifications on diphenyl substituted alkanes as 5-lipoxygenase activating protein inhibitors” (Bioorg Med Chem Lett, 2012).

What was measured:
[1] = target: T1, Arachidonate 5-lipoxygenase-activating protein (Homo sapiens, UniProt P20292); assay: Displacement of [125I]L-691,831 from 5-lipoxygenase-activating protein in human polymorphonuclear cells
T1 sequence (P20292 whole entry): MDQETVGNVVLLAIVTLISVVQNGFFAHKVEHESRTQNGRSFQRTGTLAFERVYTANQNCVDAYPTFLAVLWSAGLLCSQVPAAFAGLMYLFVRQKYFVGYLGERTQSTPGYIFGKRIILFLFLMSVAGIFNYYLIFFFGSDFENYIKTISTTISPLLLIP

[2] = target: T1, Arachidonate 5-lipoxygenase-activating protein; assay: Inhibition of 5-lipoxygenase-activating protein in human polymorphonuclear cells assessed as inhibition of calcium ionophore-induced LTB4 production in presence of human whole blood; assay type: tissue-based
[3] = Clearance in Sprague-Dawley rat at 1 mg/kg, iv and 2 mg/kg, po; assay type: ADME, organism-based; settings: in vivo
[4] = Volume of distribution in Sprague-Dawley rat at 1 mg/kg, iv and 2 mg/kg, po; assay type: ADME, organism-based; settings: in vivo
Rattus norvegicus = assay: Dose normalised AUC in Sprague-Dawley rat at 1 mg/kg, iv; assay type: ADME, organism-based; parameters: dose 1 mg/kg, route intravenous; settings: in vivo
[5] = Cmax in Sprague-Dawley rat at 1 mg/kg, iv and 2 mg/kg, po; assay type: ADME, organism-based; settings: in vivo
[6] = Half life in Sprague-Dawley rat at 1 mg/kg, iv and 2 mg/kg, po; assay type: ADME, organism-based; settings: in vivo
[7] = Oral bioavailability in Sprague-Dawley rat at 2 mg/kg; assay type: ADME, organism-based; settings: in vivo

Row | SMILES | IC50 [1] | IC50 [2] | also measured
1 | COC(=O)c1ccc(OCc2ccc3ccccc3n2)cc1C(C)(C)c1ccccc1 | 58 nM | > 9000 nM | 
2 | CCC(CC)(c1ccccc1)c1cc(OCc2ccc3ccccc3n2)ccc1C(=O)OC | 96 nM | > 9000 nM | 
3 | COC(=O)c1ccc(OCc2ccc3ccccc3n2)cc1C1(c2ccccc2)CCCCC1 | 15 nM | 1560 nM | 
4 | COC(=O)c1ccc(OCc2ccc3ccccc3n2)cc1C1(c2ccccc2)CC(F)(F)C1 | 50 nM | > 9000 nM | 
5 | COC(=O)c1ccc(OCc2ccc3ccccc3n2)cc1C1(c2ccccc2)CC(C)(C)C1 | 5.2 nM | 1400 nM | 
6 | O=c1[nH]nc(-c2ccc(OCc3ccc4ccccc4n3)cc2[C@@]2(c3ccccc3)C[C@H]3CC[C@H]2C3)o1 | 0.8 nM | 469 nM | clearance [3]: 7.3 mL/min/kg; Vd [4]: 1 L/kg; AUC/dose (Rattus norvegicus): 0.58 µM·kg·h/mg; Cmax [5]: 400 nM; half-life [6]: 1 h; bioavailability [7]: 12%
7 | COc1cccc([C@]2(c3cc(OCc4ccc5ccccc5n4)ccc3-c3n[nH]c(=O)o3)C[C@H]3CC[C@H]2C3)c1 | 1.1 nM | 375 nM | clearance [3]: 7.2 mL/min/kg; Vd [4]: 0.7 L/kg; AUC/dose (Rattus norvegicus): 0.79 µM·kg·h/mg; Cmax [5]: 670 nM; half-life [6]: 1.2 h; bioavailability [7]: 17%
8 | CC(C)(C)[C@@H](c1ccccc1)c1cc(OCc2ccc3ccccc3n2)ccc1-c1n[nH]c(=O)o1 | 1.9 nM | 534 nM | clearance [3]: 29 mL/min/kg; Vd [4]: 5.3 L/kg; AUC/dose (Rattus norvegicus): 0.34 µM·kg·h/mg; Cmax [5]: 250 nM; half-life [6]: 4.3 h; bioavailability [7]: 27%
9 | CC1(C)CC(c2ccccc2)(c2cc(OCc3ccc4ccccc4n3)ccc2-c2n[nH]c(=O)o2)C1 | 3.6 nM | 834 nM | clearance [3]: 71 mL/min/kg; Vd [4]: 7.5 L/kg; AUC/dose (Rattus norvegicus): 0.05 µM·kg·h/mg; Cmax [5]: 10 nM; half-life [6]: 1.7 h; bioavailability [7]: 9%
10 | CC1CC(c2ccccc2)(c2cc(OCc3ccc4ccccc4n3)ccc2-c2n[nH]c(=O)o2)C1 (mixture of isomers) | 2.6 nM | 695 nM | clearance [3]: 32 mL/min/kg; Vd [4]: 3.1 L/kg; AUC/dose (Rattus norvegicus): 0.19 µM·kg·h/mg; Cmax [5]: 120 nM; half-life [6]: 2 h; bioavailability [7]: 17%
11 | COC(=O)c1ccc(OCc2ccc3ccccc3n2)cc1C(c1ccccc1)C1CCCCC1 (racemic) | 16 nM | > 9000 nM | 
12 | COC(=O)c1ccc(OCc2ccc3ccccc3n2)cc1C(c1ccccc1)C(C)(C)C (racemic) | 5.5 nM | 670 nM | 
13 | COC(=O)c1ccc(OCc2ccc3ccccc3n2)cc1C(CC(C)(C)C)c1ccccc1 (racemic) | 3 nM | 2000 nM | 
14 | Nc1nnc(-c2ccc(OCc3ccc4ccccc4n3)cc2[C@]2(c3ccccc3)C[C@H]3CC[C@H]2C3)o1 (racemic) | 2.2 nM | 258 nM | 
15 | S=c1[nH]nc(-c2ccc(OCc3ccc4ccccc4n3)cc2[C@]2(c3ccccc3)C[C@H]3CC[C@H]2C3)o1 (racemic) | 1.1 nM | 753 nM | 
16 | c1ccc([C@@]2(c3cc(OCc4ccc5ccccc5n4)ccc3-c3nnco3)C[C@H]3CC[C@H]2C3)cc1 (racemic) | 2.9 nM | 376 nM | 
17 | c1ccc([C@@]2(c3cc(OCc4ccc5ccccc5n4)ccc3-c3ncon3)C[C@H]3CC[C@H]2C3)cc1 (racemic) | 5.4 nM | 721 nM | 
18 | CCn1nnc(-c2ccc(OCc3ccc4ccccc4n3)cc2[C@]2(c3ccccc3)C[C@H]3CC[C@H]2C3)n1 (racemic) | 2.4 nM | 177 nM | 
19 | CC(C)n1nnc(-c2ccc(OCc3ccc4ccccc4n3)cc2[C@]2(c3ccccc3)C[C@H]3CC[C@H]2C3)n1 (racemic) | 1.7 nM | 149 nM | 
20 | FC(F)n1nnc(-c2ccc(OCc3ccc4ccccc4n3)cc2[C@]2(c3ccccc3)C[C@H]3CC[C@H]2C3)n1 (racemic) | 2.4 nM | 502 nM | 

Now from value to compound, other results behind:

Row | IC50 [1] | IC50 [2] | SMILES | also measured
21 | 5.6 nM | 1300 nM | COC(=O)c1ccc(OCc2ccc3ccccc3n2)cc1C1(c2ccccc2)C2CCC1CC2 (centres undefined) | 
22 | 8.5 nM | 3700 nM | COC(=O)c1ccc(OCc2ccc3ccccc3n2)cc1C1(c2ccccc2)CCCC1 | 
23 | 20 nM | > 7000 nM | COC(=O)c1ccc(OCc2ccc3ccccc3n2)cc1C1(c2ccccc2)CCC1 | 
24 | 3.2 nM | 1100 nM | COC(=O)c1ccc(OCc2ccc3ccccc3n2)cc1C1(c2ccccc2)CC(C)C1 (centres undefined) | 
25 | 2.1 nM | 460 nM | COC(=O)c1ccc(OCc2ccc3ccccc3n2)cc1[C@]1(c2ccccc2)C[C@H]2CC[C@H]1C2 (racemic) | 
26 | 4 nM | 1600 nM | COC(=O)c1ccc(OCc2ccc3ccccc3n2)cc1[C@]1(c2ccccc2F)C[C@H]2CC[C@H]1C2 (racemic) | 
27 | 2.3 nM | 472 nM | COC(=O)c1ccc(OCc2ccc3ccccc3n2)cc1[C@]1(c2cccc(F)c2)C[C@H]2CC[C@H]1C2 (racemic) | 
28 | 9.5 nM | 1400 nM | COC(=O)c1ccc(OCc2ccc3ccccc3n2)cc1[C@]1(c2ccc(F)cc2)C[C@H]2CC[C@H]1C2 (racemic) | 
29 | 5.5 nM | 940 nM | COC(=O)c1ccc(OCc2ccc3ccccc3n2)cc1[C@]1(c2cccc(C)c2)C[C@H]2CC[C@H]1C2 (racemic) | 
30 | 7.4 nM | > 8600 nM | COC(=O)c1ccc(OCc2ccc3ccccc3n2)cc1[C@]1(c2cccc(C(F)(F)F)c2)C[C@H]2CC[C@H]1C2 (racemic) | 
31 | 2.5 nM | 322 nM | COC(=O)c1ccc(OCc2ccc3ccccc3n2)cc1[C@]1(c2cccc(OC)c2)C[C@H]2CC[C@H]1C2 (racemic) | 
32 | 3.4 nM | 1320 nM | COC(=O)c1ccc(OCc2ccc3ccccc3n2)cc1[C@]1(c2cc(F)cc(F)c2)C[C@H]2CC[C@H]1C2 (racemic) | 
33 | 3.5 nM | 2300 nM | COC(=O)c1ccc(OCc2ccc3ccccc3n2)cc1[C@]1(c2cc(C)cc(C)c2)C[C@H]2CC[C@H]1C2 (racemic) | 
34 | 5.8 nM | 2160 nM | O=C(Nc1cccnc1)c1ccc(OCc2ccc3ccccc3n2)cc1[C@]1(c2ccccc2)C[C@H]2CC[C@H]1C2 (racemic) | 
35 | 48 nM | 964 nM | O=C(NC1CCCC1)c1ccc(OCc2ccc3ccccc3n2)cc1[C@]1(c2ccccc2)C[C@H]2CC[C@H]1C2 (racemic) | 
36 | 7.1 nM | 1730 nM | O=C(c1ccc(OCc2ccc3ccccc3n2)cc1[C@]1(c2ccccc2)C[C@H]2CC[C@H]1C2)N1CCCC1 (racemic) | 
37 | 6.3 nM | 1020 nM | Cc1noc(-c2ccc(OCc3ccc4ccccc4n3)cc2[C@]2(c3ccccc3)C[C@H]3CC[C@H]2C3)n1 (racemic) | 
38 | 2.5 nM | 796 nM | O=c1[nH]nc(-c2ccc(OCc3ccc4ccccc4n3)cc2[C@]2(c3ccccc3)C[C@H]3CC[C@H]2C3)o1 (racemic) | 
39 | 5 nM | 456 nM | Cc1nnc(-c2ccc(OCc3ccc4ccccc4n3)cc2[C@]2(c3ccccc3)C[C@H]3CC[C@H]2C3)o1 (racemic) | 
40 | 1.6 nM | 189 nM | Cc1nc(-c2ccc(OCc3ccc4ccccc4n3)cc2[C@]2(c3ccccc3)C[C@H]3CC[C@H]2C3)no1 (racemic) | 
41 | 2.9 nM | 5720 nM | c1ccc([C@@]2(c3cc(OCc4ccc5ccccc5n4)ccc3-c3nnn[nH]3)C[C@H]3CC[C@H]2C3)cc1 (racemic) | 
42 | 2.8 nM | 313 nM | Cn1nnc(-c2ccc(OCc3ccc4ccccc4n3)cc2[C@]2(c3ccccc3)C[C@H]3CC[C@H]2C3)n1 (racemic) | 
